Assays:
[1] = tested on: MCF7; assay: Cytotoxicity against human MCF7 cells expressing TLR4 assessed as cell viability at 10 uM measured after 96 hrs by MTT assay relative to control; format: functional; details: read-out: Activity
[2] = tested on: MDA-MB-231; assay: Cytotoxicity against human MDA-MB-231 cells expressing TLR4 assessed as cell viability at 10 uM measured after 96 hrs by MTT assay relative to control; format: functional; details: read-out: Activity
[3] = tested on: HCC1806; assay: Cytotoxicity against human HCC1806 cells assessed as cell viability at 10 uM measured after 96 hrs by MTT assay relative to control; format: functional; details: read-out: Activity
[4] = tested on: HCC1806; assay: Cytotoxicity against human HCC1806 cells assessed as growth inhibition measured after 96 hrs by MTT assay; format: cell-based; details: HCC1806, 96 h
[5] = tested on: BEAS-2B; assay: Cytotoxicity against human BEAS-2B cells reduction in cell viability measured after 96 hrs by MTT assay; format: cell-based
[6] = Selectivity index, ratio of IC50 for human BEAS-2B cells to IC50 for human MDA-MB-231 cells; format: toxicity; details: BEAS-2B cells versus MDA-MB-231 cells, read-out: Selectivity Index
[7] = tested on: MDA-MB-231; assay: Cytotoxicity against human MDA-MB-231 cells expressing TLR4 assessed as reduction in cell viability measured after 96 hrs by MTT assay; format: functional, cell-based; details: MDA-MB-231, 96 h
[8] = tested on: MCF7; assay: Cytotoxicity against human MCF7 cells expressing TLR4 assessed as reduction in cell viability measured after 96 hrs by MTT assay; format: functional, cell-based; details: MCF7, 96 h
[9] = tested on: MDA-MB-231; assay: Cytotoxicity against human MDA-MB-231 cells expressing TLR4 assessed as growth inhibition measured after 96 hrs by MTT assay; format: functional, cell-based; details: MDA-MB-231, 96 h
[10] = tested on: HCC1806; assay: Cytotoxicity against human HCC1806 cells assessed as reduction in cell viability measured after 96 hrs by MTT assay; format: functional, cell-based; details: HCC1806, 96 h
[11] = Selectivity index, ratio of IC50 for human BEAS-2B cells to IC50 for human MCF7 cells; format: toxicity; details: BEAS-2B cells versus MCF7 cells, read-out: Selectivity Index
[12] = tested on: MCF7; assay: Cytotoxicity against human MCF7 cells expressing TLR4 assessed cell growth inhibition at 10 uM measured after 96 hrs by MTT assay relative to control; format: functional; details: read-out: GI
[13] = Suppression of MyD88 expression in human MDA-MB-231 cells expressing TLR4 at 0.1 uM pretreated with compounds for 24 hrs followed by PTX challenge and measured after 24 hrs by ELISA relative to control; format: functional; details: time 48 hrs
[14] = tested on: MDA-MB-231; assay: Cytotoxicity against human MDA-MB-231 cells expressing TLR4 assessed cell growth inhibition at 10 uM measured after 96 hrs by MTT assay relative to control; format: functional; details: read-out: GI
[15] = Suppression of MyD88 expression in human MDA-MB-231 cells expressing TLR4 at 1 uM pretreated with compounds for 24 hrs followed by PTX challenge and measured after 24 hrs by ELISA relative to control; format: functional; details: time 48 hrs
[16] = Suppression of MyD88 expression in human MDA-MB-231 cells expressing TLR4 at 10 uM pretreated with compounds for 24 hrs followed by PTX challenge and measured after 24 hrs by ELISA relative to control; format: functional; details: time 48 hrs
[17] = tested on: HCC1806; assay: Cytotoxicity against human HCC1806 cells assessed cell growth inhibition at 10 uM measured after 96 hrs by MTT assay relative to control; format: functional; details: read-out: GI
[18] = Effect on MyD88 expression in human MDA-MB-231 cells expressing TLR4 at 0.1 to 10 uM after 24 hrs by ELISA; format: cell-based; details: mda-mb-231, 24 h, dose 0.1-10 µM

Row | SMILES | viability at 10 µM [1] | viability at 10 µM [2] | viability at 10 µM [3] | IC50 [4] | IC50 [5] | selectivity ratio [6] | IC50 [7] | IC50 [8] | IC50 [9] | IC50 [10] | selectivity ratio [11] | inhibition of growth at 10 µM [12] | Activity [13] | inhibition of growth at 10 µM [14] | Activity [15] | Activity [16] | inhibition of growth at 10 µM [17] | Activity [18]
1 | COc1cc(C)ccc1/C=C1\CCCC(C(=O)c2ccccc2)=C1O | 87% | 87% | 87% | – | – | – | – | – | – | – | – | – | – | – | – | – | – | –
2 | CC(=O)O[C@H]1C(=O)[C@@]2(C)[C@H]([C@H](OC(=O)c3ccccc3)[C@]3(O)C[C@H](OC(=O)[C@H](O)[C@@H](NC(=O)c4ccccc4)c4ccccc4)C(C)=C1C3(C)C)[C@]1(OC(C)=O)CO[C@@H]1C[C@@H]2O [PACLITAXEL] | – | – | – | 8 nM | 8 nM | 0.2 | 40 nM | 30 nM | 27 nM | 9 nM | 0.26 | – | – | – | – | – | – | –
3 | O=C(C1=C(O)/C(=C/c2ccc(C(F)(F)F)cc2)CCC1)c1ccccc1 | – | – | – | – | 3800 nM | – | 6500 nM | 2300 nM | – | 5330 nM | – | 8% | 17.64% | 8% | 24.77% | 27.94% | 8% | 23%
